These results are taken from patent publication US7666996B2, “Casein derived peptides and uses thereof” (priority 2000, dated 2010).

The test system of experiment [1] is female C57B⅙j mice fed an atherogenic diet. Briefly: Diet-induced hypercholesterol/hyperlipidemia in mice. The format is in vivo. The conditions noted are these: one week post 1 mg i.p.; for HDL: diet control 54.5; for LDL: diet control 326; for Total cholesterol (TC): diet control 393. The procedure:
The ability of synthetic casein derived peptides to reduce cholesterol levels in 7-week old female C57B⅙j mice was assessed after feeding an atherogenic diet. The mice were divided into groups of 8. One control group was fed a normal diet. A second control group was fed the modified Thomas Hartroft diet containing cholate (#TD 88051: Teklad, Madison, Wis.) [Gerber, D. W. et al., Journal of Lipid Research. 42, 2001]. The remaining experimental groups were all fed the modified Thomas Hartroft diet.
Cholestrol blood levels were determined according to Roche Cholesterol Assay based on Roeschlou & Allin enzymatic method (Roche, Inc., Germany).

In experiment [2] the test system is HIV-1 (CEM lymphocyte cells). Briefly: Inhibition of HIV-1 infection of CEM lymphocytes. The format is cell-based. To be noted: for HIV-1 infection level, HIV-P24 antigen: 7 days post infection, control 0.52; for Cell counts: virus pre-treated 3 hours, infected control 1.06×10^6. The procedure:
Peptides: Peptides [either peptides derived from natural casein or synthetic peptides derived from casein (2-26 amino acids in length, see table 3)] supplied as lyophilized powder were resuspended in RPMI complete medium and added to cell cultures at a final concentrations of 50 to 1000 μg per ml.
Cells: Several types of freshly isolated human cells (primary cells) and cell lines are known to be susceptible to in vitro HIV-1 infection, although essentially any cell displaying even low surface levels of the CD4 molecule can be considered a potential target for HIV-1 infection. Two commonly used human cell lines which are highly sensitive for HIV-1 infection were chosen, CEM and Sup-T1.
CEM is a human T4-lymphoblastoid cell line initially derived by G. E. Foley et al. [(1965), Cancer 18:522] from peripheral blood buffy coat of a person with acute lymphoblastic leukemia. These cells were continuously maintained in suspension in medium, and have been used widely for analysis of infectivity, antiviral agents and neutralizing antibodies.
Virus: The HIV virus strain employed was HIV-1IIIB, originally designated HTLV-IIIB. Concentrated culture fluids of peripheral blood from several patients with AIDS or related diseases were used to establish a permanent productive infection in H-9 cells. This subtype B virus has high capacity to replicate in human T-cell lines. Viral titer was 5.38 ng per ml in stock solution.
HIV-1 P^24 antigen capture assay: An HIV-1 P^24 Antigen capture assay kit employed was designed to quantitate the HIV-1 P^24 core antigen, which is proportionally related to the degree of viral production in cells. This kit was purchased from the AIDS Vaccine program of the SAIC-NCI-Frederick Cancer Research Institute, P.O. Box B, Frederick, Md. 21702, USA and included 96 well plates coated with monoclonal antibody to HIV-1 P^24, primary antibody-rabbit anti-HIV P^24 serum, secondary antibody-Goat anti-rabbit-IgG (H+L) peroxidase conjugated antibody, TMB peroxidase substrate system and lysed HIV-1 P^24 standard. The HIV-1 P^24 antigen capture assay was analyzed by Organon-Technica ELISA reader at 450 nm with a reference at 650 nm.
HIV-1 P^24 antigen capture ELISA: HIV infection was measured with an indirect enzyme immunoassay which detects HIV-1 P^24 core antigens in tissue culture media. Tissue culture supernatant was reacted with primary rabbit anti-HIV-1 P^24 antigen and visualized by peroxidase conjugated goat anti rabbit IgG. The reaction was terminated by adding 4N H2SO4, wherein the intensity of the color developed is proportional to the amount of HIV-1 antigen present in the tissue culture supernatant.
HIV infection of human cultured CD4 cells: For longer incubations, the cells (CEM, Sup-T1) were preincubated with several increasing concentrations of peptides derived from natural casein (50-1000 μg per ml) or synthetic peptides derived from casein (10-500 μg per ml) for 24 (for synthetic and natural peptides) and 48 (only for natural peptides) hours and HIV-1IIIB (45 pg per ml final concentration) was added to each well thereafter. For the shorter incubations (3 hours), HIV-1IIIB was preincubated with the peptides for 3 hours and then added to cells (5000 cells/well) in tissue culture plates. Controls were IF (Infected, cells cultured with HIV-1 and without peptides), UIF (Uninfected, cells cultured without HIV-1 and without peptides) and UIF +Ch (Uninfected+peptides derived from natural casein, cells cultured in the presence of peptides derived from natural casein {50-1000 μg per ml}) to test the effect of peptides derived from natural casein and synthetic peptides derived from casein on cell viability and growth. Cells were counted for viability and proliferation rate on day 7, 10 and day 14 post infection (the day of P^24 antigen culture supernatant harvest). Cells and tissue culture supernatants (media) were harvested and lysed immediately in 1/10 volume of 10% Triton X-100. […]

In experiment [3] the test system is Non-Obese Diabetic (NOD) mice. The experiment in a line: Intraperitoneal Glucose Tolerance Test (IPGTT) in NOD mice. The experiment is classed as in vivo. The conditions noted are these: individual healthy NOD mice, 25 weeks after peptides; for IPGT TEST 60 min. post load plasma glucose: 60 min after i.p. glucose 1 g/kg; for IPGT TEST 0 min. (pre-load) plasma glucose: before glucose load. The method, then:
Intraperitoneal Glucose Tolerance Test (IPGTT): The glucose tolerance test is the definitive method for investigating glucose metabolism and diabetic tendencies in mammals. Twenty five (25) weeks after receiving Synthetic peptides derived from casein, response to a glucose load was assessed with an intraperitoneal glucose tolerance test. Glucose injection consisted of 1 g/kg body weight. Glycemic values were determined from blood drawn prior to test (0 minutes) and 60 minutes after loading.

For experiment [4], the system named is Non-Obese Diabetic (NOD) mice. Briefly: Glucosuria in Non-Obese Diabetic (NOD) mice. The experiment is classed as in vivo. To be noted: for Healthy/Total (sugar not detected in urine): female NOD mice, 100 μg synthetic peptide once weekly for 5 weeks, evaluated after 25 weeks; for Urine Sugar: individual healthy NOD mice, after 25 weeks; for prevention of glucosuria (in words): 100 μg once weekly for 5 weeks, 25 weeks. The procedure: Juvenile (Type I, IDDM) diabetes in Non-Obese Diabetic (NOD) mice:
Peptides derived from natural casein: NOD mice are a commonly used model for research of autoimmune disease and human Juvenile Diabetes. Six week old female NOD mice received either one or two injections per week of 100 μg of peptides derived from natural casein, for a total of 5 or 10 treatments. Control mice received no treatment. The severity of disease was determined according to glucosuria, which was measured using Combi test sticks [Gross, D. J. et al (1994), Diabetology, 37:1195]. Results were expressed as the percent of glucosuria-free mice in each sample over a 365-day period.
Synthetic peptides derived from casein: In another experiment, 6 week old female NOD mice received one injection per week of 100 μg of Synthetic peptides derived from casein for a total of 5 treatments. Control mice received no treatment. Results were expressed as the number of healthy mice in the various treated groups.

Experiment [5] deals with irradiated, bone marrow transplanted mice. The experiment in a line: Leukocyte and platelet reconstitution in bone marrow transplant recipient mice. The experiment is classed as in vivo. To be noted: for white blood cell reconstitution (in words): F1 mice, 750 cGy, 1 mg i.v., days 5 and 7 post-reconstitution. The method, then:
Leukocyte and platelet reconstitution in bone marrow transplant recipient Mice: BALB/c mice were sub-lethally irradiated at a source to skin distance of 70 cm, dosage of 50 cGy per minute, for a total of 600 cGy. The irradiated mice were […] casein, synthetic peptides derived from casein (13-26 amino acids, see Table 3 above), or human serum albumin (controls), following a double-blinded protocol. Leukocyte reconstitution was determined according to cell count in peripheral blood collected at indicated intervals from 6 to 12 days post treatment. Platelet reconstitution was determined by cell count in blood collected from the retro orbital plexus, into EDTA-containing vials, at indicated intervals from day 6 to day 15 post treatment. […]
In a third series of experiments, the mice were irradiated (800 cGy), reconstituted and injected intraperitoneally with 1.0 mg synthetic peptides derived from casein (peptides 3a and 4P, representing the first 6 and 12 amino acids of the N terminus of αS1 casein, respectively—see Table 3 above) daily, on days 4, 5, 6 and 7 post-transplantation. Platelet reconstitution was assayed at 10 and 12 days post-transplantation.
In a fourth series of experiments, F1 mice were irradiated (750 cGy), reconstituted with syngeneic bone marrow, and injected intravenously 24 hours later with 1 mg per mouse of synthetic peptides derived from casein representing amino acids 1-22 of the N terminus of αS1 casein. In addition, 2 (two) groups of mice were treated each with a natural fraction of αS1 casein position 1-23, and a fraction of peptides derived from natural κ-casein, representing amino acid coordinates 106-169 of κ-casein (SEQ ID NO: 27). WBC counts were conducted on days 5, 7, 10 and 12 post-transplantation.

[6] abbreviates: 800 cGy, 1.0 mg i.p. daily, days 4-7.

As to “RPKHP [3P, synthetic peptide, N-terminal 5 amino acids of αS1 casein]”, in experiment [1], the HDL turned out to be 42.5 mg/dL, the LDL is 247 mg/dL and the “Total cholesterol (TC)” value turned out to be 308 mg/dL. In experiment [2] (10 μg per ml), the “HIV-1 infection level, HIV-P24 antigen” value worked out at 0.26 ng P^24 Ag per ml and the Cell counts is reported as 1.17×10^6. In experiment [2] (25 μg per ml), the “HIV-1 infection level, HIV-P24 antigen” value is 0.18 ng P^24 Ag per ml and the Cell counts is listed as 1.26×10^6.
“RPKHPIKH [Y, synthetic peptide, N-terminal 8 amino acids of αS1 casein]”: in experiment [3], the “IPGT TEST 60 min. post load plasma glucose” value is 138 mg/dL and the “IPGT TEST 0 min. (pre-load) plasma glucose” value is 121 mg/dL. Also, in experiment [4], the “Healthy/Total (sugar not detected in urine)” value is recorded as 1/5 and the “Urine Sugar” value is “Negative”.
Take “RPKHPIKHQG [1a, synthetic peptide, N-terminal 10 amino acids of αS1 casein]”: in experiment [3], the “IPGT TEST 60 min. post load plasma glucose” value is 106 mg/dL and the “IPGT TEST 0 min. (pre-load) plasma glucose” value turned out to be 88 mg/dL. Moreover, in experiment [4], the “Healthy/Total (sugar not detected in urine)” value is 1/5 and the “Urine Sugar” value was “Negative”.
Regarding “RPKHPIKHQGL [2a, synthetic peptide, N-terminal 11 amino acids of αS1 casein]”, in experiment [1], the HDL came to 41 mg/dL, the LDL was found to be 221 mg/dL and the “Total cholesterol (TC)” value is 279 mg/dL. Also, in experiment [4], the “prevention of glucosuria (in words)” value is recorded as “highly effective”, the “Healthy/Total (sugar not detected in urine)” value is 4/5 and the “Urine Sugar” value was “Negative”.
As for “RPKHPIKHQGLP [3a, synthetic peptide, N-terminal 12 amino acids of αS1 casein]”, in experiment [4], the “prevention of glucosuria (in words)” value is “highly effective”, the “Healthy/Total (sugar not detected in urine)” value is listed as 3/5 and the “Urine Sugar” value was “Negative”. Also, in experiment [5] (setting [6]), the “increase in platelet counts over control, 10 days post transplantation” value is “up to 35.5%”; the “increase in platelet counts over control, 12 days post transplantation” value is “up to 13.5%”; the “platelet counts, 12 days post transplantation” value stood at 622000 mL⁻¹. In addition, in experiment [5] (800 cGy, 1.0 mg i.p. daily, days 4-7, control 169), the “platelet counts, 10 days post transplantation” value turned out to be 229000 mL⁻¹.
“RPKHPIKHQGLPQ [A, synthetic peptide, N-terminal 13 amino acids of αS1 casein]”: in experiment [4], the “Healthy/Total (sugar not detected in urine)” value was 2/5 and the “Urine Sugar” value is listed as “Negative”.
Take “RPKHPIKHQGLPQE [B, synthetic peptide, N-terminal 14 amino acids of αS1 casein]”: the “IPGT TEST 0 min. (pre-load) plasma glucose” value in experiment [3] amounted to 130 mg/dL. Further, in experiment [4], the “Healthy/Total (sugar not detected in urine)” value was 2/5 and the “Urine Sugar” value is reported as “Negative”.
For the substance “RPKHPIKHQGLPQEV [C, synthetic peptide, N-terminal 15 amino acids of αS1 casein]”, the “peripheral white blood cell counts, day 10” value in experiment [5] (BALB/c, 600 cGy, 1 mg per mouse intraperitoneal, control 1.67) is given as 1.72 ×10^6 cells per ml. Besides, the “peripheral white blood cell counts, day 12” value in experiment [5] (BALB/c, 600 cGy, 1 mg per mouse intraperitoneal, control 4.64) is 6.54 ×10^6 cells per ml.
Turning to “RPKHPIKHQGLPQEVL [D, synthetic peptide, N-terminal 16 amino acids of αS1 casein]”, in experiment [4], the “Healthy/Total (sugar not detected in urine)” value is 2/5 and the “Urine Sugar” value was “Negative”.
Consider “RPKHPIKHQGLPQEVLNENLL [synthetic peptide, N-terminal 21 amino acids of αS1 casein]”, for which the “IPGT TEST 60 min. post load plasma glucose” value in experiment [3] was found to be 138 mg/dL. Besides, in experiment [4], the “Healthy/Total (sugar not detected in urine)” value is 2/5 and the “Urine Sugar” value was “Negative”.
For “RPKHPIKHQGLPQEVLNENLLRF [synthetic peptide, N-terminal 23 amino acids of αS1 casein]”, in that order: 143 mg/dL, 2/5 and “Negative”.
As to “α-S1 1-23: gel filtration fraction of natural casein peptides: amino acid positions 1-23 of the N-terminus of αS1 casein (SEQ ID NO: 22) (RPKHPIKHQGLPQEVLNENLLRF)”, the “white blood cell reconstitution (in words)” value in experiment [5] is recorded as “dramatic enhancement”.
On the same count and under the same terms, the entry for “κ-casein (106-169): gel filtration fraction comprising a peptide representing amino acid positions 106-169 of κ-casein” is “dramatic enhancement”.
